Experimental data as given in paper PMC11277004, “Di- and Triselenoesters—Promising Drug Candidates for the Future Therapy of Triple-Negative Breast Cancer” (International Journal of Molecular Sciences, 2024).
Like-named read-outs stand apart in the source and are kept apart here.

Legend:
caspase 8 [1] = test: Caspase 8 activity (FAM-FLICA, flow cytometry), MCF-7; format: cell-based, human; details: 24 h
Experimental: (§1) The FAM-FLICA® Caspase Assay kits (all from ImmunoChemistry Technologies, Bloomington, MN, USA) and flow cytometer (BD FACSCanto II, BD Biosciences Systems, San Jose, CA, USA) were used to evaluate the activity of caspase 3/7, 8, and 9. MCF-7 and MDA-MB-231 cells were treated with selenoesters under the study (EDAG-1 and EDAG-8) and a reference agent (cisplatin) at two different concentrations (0.5 and 1 µM; treatment duration: 24 h). Following this, cells were collected, washed twice with cold PBS, and resuspended in an Apoptosis Wash Buffer to a final concentration of 5 × 10^5 cells/mL. In the next step, 290 µL each of cell suspension was taken and transferred into tubes. Then 10 µL of FLICA solution diluted immediately before use (1:5 v/v, using PBS) was added to the cells, mixed by pipetting, and incubated in the dark for 1 h at 37 °C. After this time, the cells were washed twice with 2 mL Apoptosis Wash Buffer, centrifuged, and resuspended in 300 µL of the buffer. Thus, prepared samples were immediately analyzed using a BD FACSCanto II flow cytometer (10,000 events) with the FACSDiva 6.0 software (both from BD Biosciences Systems, San Jose, CA, USA). The equipment calibration was carried out using the BD Cytometer Setup and Tracking Beads (BD Biosciences, San Diego, CA, USA).

caspase 8 [2] = test: Caspase 8 activity (FAM-FLICA, flow cytometry), MDA-MB-231; format: cell-based, human; details: 24 h
Experimental: as §1

caspase 9 = test: Caspase 9 activity (FAM-FLICA, flow cytometry), MDA-MB-231; format: cell-based, human; details: 24 h
Experimental: as §1

[3] = system: MDA-MB-231 breast cancer cells; test: Mitochondrial membrane potential (JC-1, flow cytometry), MDA-MB-231; format: cell-based, human; details: 24 h
Experimental: (§2) The entire cell staining and cytometric analysis procedures were performed according to the instructions provided with the kit. In the first step, the cells (1 × 10^6 cells/sample) were washed and resuspended in 0.5 mL of buffer containing 10 µg/mL JC-1 dye. Incubation was carried out for 15 min at room temperature, protected from light. Afterward, the cells were washed twice with buffer, resuspended in 0.5 mL PBS, and immediately analyzed using a flow cytometer (BD FACSCanto II; 10,000 events measured) and the FACSDiva 6.0 software (BD Biosciences Systems, San Jose, CA, USA) to count the percentage of cells with reduced ΔΨm. The equipment was calibrated with the BD Cytometer Setup and Tracking Beads (BD Biosciences, San Diego, CA, USA).

p53 [4] = test: p53 protein expression by flow cytometry, MDA-MB-231; format: cell-based, human; details: 24 h
Experimental: (§3) For this purpose, Akt (PE), Bax (FITC), Bcl-2 (Alexa Fluor® 647), LC3A/B (Alexa Fluor® 488), and p53 (Alexa Fluor® 488) antibodies conjugated to different fluorochromes (all from Cell Signaling Technology, Beverly, MA, USA) were utilized. Each assay was performed according to the manufacturer's protocol available on their website. After incubation with the tested compounds, the cells were centrifuged, resuspended in 4% formaldehyde (100 μL/1 × 10^6 cells), and fixed for 15 min at room temperature. Afterward, to remove the formaldehyde, the cells were washed by centrifugation with excess PBS and the permeabilization step was triggered. For this purpose, ice-cold 90% methanol was added to the pre-chilled cell pellet, gently vortexed, and incubated for 1 h on ice. Later, the cells were washed by centrifugation with excess PBS again, resuspended in 100 μL of 1:100 diluted primary antibody (stain buffer was used for dilution), and incubated for 1 h at room temperature in the dark. After incubation, the cells were washed, resuspended in 300 μL PBS, and immediately tested with a flow cytometer (BD FACSCanto II, BD Biosciences Systems, San Jose, CA, USA; 10,000 events measured). The obtained results were analyzed using the FACSDiva 6.0 software (BD Biosciences Systems, San Jose, CA, USA). In the case of the p53 protein, the MRF values were obtained first during the flow cytometer readout utilizing FACSDiva software and later analyzed using FCS Express 7 (De Novo Software, Pasadena, CA, USA). The equipment calibration was performed using the BD Cytometer Setup and Tracking Beads (BD Biosciences, San Diego, CA, USA).

Bax = Bax protein level by flow cytometry, MCF-7; format: cell-based, human; details: 24 h
Experimental: as §3

[5] = system: MCF-10A normal human breast epithelial cells; test: DNA biosynthesis assay ([3H]-thymidine incorporation), MCF-10A; format: cell-based; details: read-out: IC50, DNA biosynthesis
Experimental: (§4) The study of the antiproliferative properties (intensity of [^3H]-thymidine incorporation into cell DNA) of the tested derivatives against tested cell lines (MCF-7, MDA-MB-231, MCF-10A) was performed after 24 h incubation with varied concentrations of the tested compounds in the medium (0.5–5 µM) in 6-well plates (baseline seeding density: 5 × 10^5 cells/well). After 24 h the medium was removed, the cells were washed with PBS (Corning, Kennebunk, ME, USA), and a fresh medium was added. After that, the cells were treated with 0.5 µCi of tritium-labeled thymidine (specific activity 7 Ci/mmol) by incubating them with this compound for 4 h under the same conditions as the cell culture. In the first step, the medium was removed, and the cell monolayer was washed twice with 1 mL of 0.05 M Tris-HCl buffer pH 7.4 containing 0.11 M NaCl. To denature proteins, the cells were washed twice with 1 mL of 5% trichloroacetic acid (TCA) solution. Finally, cell lysis was performed by adding 1 mL of 0.1 M sodium hydroxide (NaOH) solution containing 1% sodium dodecyl sulfate (SDS) to each well. After five minutes, the obtained cell lysates were transferred to scintillation vials with 2 mL of scintillation fluid added to them beforehand. Radioactivity was measured using the Scintillation Counter 1900 TR, TRI-CARB (Packard, Perkin Elmer, Inc., San Jose, CA, USA). The intensity of DNA biosynthesis in the analyzed cells was expressed in terms of dpm/well. The result of the radioactivity measurement in the control cells (without the addition of tested compounds) was taken as 100%, while the values of cells incubated with the tested compounds were presented as a percentage of the control value.

Bcl-2 = Bcl-2 protein level by flow cytometry, MCF-7; format: cell-based, human; details: 24 h
Experimental: as §3

[6] = system: MCF-7 breast cancer cells; test: Mitochondrial membrane potential (JC-1, flow cytometry), MCF-7; format: cell-based, human; details: 24 h
Experimental: as §2

[7] = system: MDA-MB-231 triple-negative breast cancer cells; test: DNA biosynthesis assay ([3H]-thymidine incorporation), MDA-MB-231; format: cell-based, human; details: read-out: IC50, DNA biosynthesis
Experimental: as §4

p53 [8] = test: p53 protein expression by flow cytometry, MCF-7; format: cell-based, human; details: 24 h
Experimental: as §3

Row | SMILES | Active caspase 8 ± SD (cells) (caspase 8 [1]; MCF-7, 0.5 μM) | Active caspase 8 ± SD (cells) (caspase 8 [1]; MCF-7, 1 μM) | Active caspase 8 ± SD (cells) (caspase 8 [2]; MDA-MB-231, 0.5 μM) | Active caspase 8 ± SD (cells) (caspase 8 [2]; MDA-MB-231, 1 μM) | Active caspase 9 ± SD (cells) (caspase 9; MDA-MB-231, 0.5 μM) | Active caspase 9 ± SD (cells) (caspase 9; MDA-MB-231, 1 μM) | Decreased ΔΨm ± SD (cells) ([3]; MDA-MB-231, 0.5 μM) | Decreased ΔΨm ± SD (cells) ([3]; MDA-MB-231, 1 μM) | p53 protein expression, MRF (p53 [4]; MDA-MB-231, 0.5 μM) | p53 protein expression, MRF (p53 [4]; MDA-MB-231, 1 μM) | Bax positive cells ± SD (Bax; MCF-7, 0.5 μM) | Bax positive cells ± SD (Bax; MCF-7, 1 μM) | Bcl-2 negative cells ± SD (Bcl-2; MCF-7, 0.5 μM) | Bcl-2 negative cells ± SD (Bcl-2; MCF-7, 1 μM) | Decreased ΔΨm ± SD (cells) ([6]; MCF-7, 0.5 μM) | Decreased ΔΨm ± SD (cells) ([6]; MCF-7, 1 μM) | p53 protein expression, MRF (p53 [8]; MCF-7, 0.5 μM) | p53 protein expression, MRF (p53 [8]; MCF-7, 1 μM) | IC50 ([5]; Homo sapiens, 24 h) | IC50 ([7]; Homo sapiens, MDA-MB-231, 24 h) | further results
1 | N.N.[Cl][Pt][Cl] [Cisplatin, reference compound] | 3.7 ± 0.2% | 4.1 ± 0.2% | 7.3 ± 0.7% | 8.0 ± 1.6% | 2.7 ± 0.1% | 2.8 ± 0.3% | 11.2 ± 0.9% | 12.9 ± 0.2% | 375.5 ± 3.5 | 423.5 ± 2.1 | 2.9 ± 0.9% | 3.0 ± 0.8% | 2.7 ± 0.2% | 2.7 ± 0.1% | 6.3 ± 1.6% | 7.2 ± 0.4% | 375.8 ± 19.1 | 380.5 ± 20.4 | – | – | IC50 ([5]; 24 h incubation): > 5000 nM; IC50 ([7]; MDA-MB-231, 24 h incubation): > 5000 nM
2 | CC(=O)C[Se]C(=O)c1ccc(C(=O)[Se]CC(C)=O)cc1 [EDAG-1, Se,Se-bis(2-oxopropyl) benzene-1,4-bis(carboselenoate)] | 6.1 ± 0.6% | 6.6 ± 1.1% | 11.5 ± 0.9% | 14.4 ± 1.2% | 5.2 ± 0.7% | 8.5 ± 0.6% | 29.2 ± 2.2% | 72.1 ± 0.9% | 559.3 ± 63.1 | 593.0 ± 10.8 | 6.1 ± 0.9% | 8.6 ± 1.0% | 13.9 ± 0.9% | 38.4 ± 4.0% | 10.0 ± 0.4% | 15.3 ± 1.1% | 404.8 ± 23.7 | 407.8 ± 22.0 | 720 ± 70 nM | 700 ± 150 nM | –
3 | CC(=O)C[Se]C(=O)c1cc(C(=O)[Se]CC(C)=O)cc(C(=O)[Se]CC(C)=O)c1 [EDAG-8, Se,Se,Se-tris-(2-oxopropyl) benzene-1,3,5-tris-(carboxyselenoate)] | 8.5 ± 0.8% | 19.4 ± 2.6% | 15.0 ± 2.0% | 26.6 ± 3.6% | 8.4 ± 0.9% | 32.5 ± 3.8% | 55.0 ± 3.0% | 92.5 ± 0.7% | 624.8 ± 49.7 | 661.5 ± 18.6 | 18.0 ± 1.5% | 32.1 ± 3.1% | 45.2 ± 9.3% | 63.6 ± 3.7% | 18.7 ± 0.9% | 54.2 ± 4.6% | 421.3 ± 24.5 | 450.8 ± 28.7 | 930 ± 70 nM | 470 ± 80 nM | –
